We go through three molecules from patent US8232289B2, “Spiropiperidine compounds as ORL-1 receptor antagonists” (Eli Lilly and Company, priority 2009, dated 2012).

Test [1] deals with T1, cloned human ORL1/nociceptin receptors (Homo sapiens, UniProt P41146).
T1 construct: expressed in transfected cells
Briefly: Functional blockade of agonist-mediated G-protein activation, GTP-γ-[35S] binding. Type of test: biochemical. The text has this:
Agonist-mediated stimulation of G-protein coupled receptors results in the activation of membrane associated Gαβγ-protein heterotrimer complexes, and represents the first step in the transduction of extracellular signals to modification of intracellular pathways. The first step in activation of receptor-mediated activation of Gαβγ-proteins heterotrimer is the exchange of Gα subunit bound guanosine diphoshpate (GDP) for guanosine triphosphate (GTP). The binding of GTP to the Gα subunit causes dissociation of the heterotrimer subunits, Gβ and Gγ, resulting in the modulation of several intracellular signaling cascades. Measurement of receptor-mediated G-protein activation can be measured using the non-hydrolyzable radiolabeled analog of GTP, GTP-γ-[35S]. Utilizing this methodology, antagonist affinity (Kb) is measured in membranes expressing cloned human ORL1/nociceptin receptors using a GTP-γ-[35S] binding assay according to previously described protocols with minor modifications (DeLapp et al., J Pharmacol Exp Ther. 1999 May; 289(2):946-55; Ozaki et al., Eur J Pharmacol. 2000 Aug. 18; 402(1-2):45-53). Assays are conducted in a 200-μl volume with the following buffer composition: 100 mM NaCl, 20 mM HEPES, 5 mM MgCl2, 1 mM EDTA, 0.1% BSA, 3 μM GDP, 0.5 nM [^35S]GTPγS. ORL1 receptor membrane suspension is added at a concentration of 20 μg protein per well and receptor stimulation is achieved using 300 nM nociceptin/OFQ. Wheat germ agglutinin coated SPA beads (Amersham, Arlington Hts., IL) are added at 1 mg per well to detect membrane-bound [^35S]GTPγS. Plates are sealed and incubated for 2 hr. at room temperature. Plates are then placed at 4° C. overnight to allow the SPA beads to settle and then counted in a Wallac Microbeta. Specific [^35S]GTPγS binding is determined as the difference in CPM observed in the absence and presence of 10 μM unlabeled GTPγS. Data are plotted as the percent of specific [^35S]GTPγS bound. Curves are plotted as the percent of specific binding and IC50 values are determined using a sigmoidal dose response curve with variable slope. […]

A further test concerns the target Muscarinic M3 (Homo sapiens, UniProt P20309). Briefly: Radioligand binding selectivity, Muscarinic M3. From the text: (§1) Similarly, Ki for the mu, kappa and delta opioids, serotonin, dopamine, adrenergic, mucarinic, and histamine receptors, as well as binding to the norepinephrine transporter, sodium channel, chloride channel, and calcium channel may be determined using membranes expressing the desired receptor/transporter/channels and appropriate corresponding radioligand competitor molecules.

The target of test [2] is Ca+2 channel (diltiazem site). Put plainly: Radioligand binding selectivity, Ca+2 channel (diltiazem site).
Excerpt: as §1

The target in another test is Histamine H1 (Homo sapiens, UniProt P35367). Briefly: Radioligand binding selectivity, Histamine H1.
Excerpt: as §1

In another test the target is Adenosine A3 (Homo sapiens, UniProt P0DMS8). Put plainly: Radioligand binding selectivity, Adenosine A3.
Adenosine A3, sequence (P0DMS8 whole entry): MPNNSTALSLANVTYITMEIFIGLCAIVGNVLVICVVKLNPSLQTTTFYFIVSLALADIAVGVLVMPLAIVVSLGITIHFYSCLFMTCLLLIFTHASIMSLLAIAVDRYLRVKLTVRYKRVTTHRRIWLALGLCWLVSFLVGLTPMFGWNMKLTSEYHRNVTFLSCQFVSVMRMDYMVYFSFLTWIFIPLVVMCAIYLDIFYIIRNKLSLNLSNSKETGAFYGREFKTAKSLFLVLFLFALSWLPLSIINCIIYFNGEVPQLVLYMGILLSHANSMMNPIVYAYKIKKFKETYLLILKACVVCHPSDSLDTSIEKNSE
The target of the next test is 5-HT4 (Homo sapiens, UniProt Q13639). Put plainly: Radioligand binding selectivity, 5-HT4.
5-HT4, sequence (Q13639 whole entry, species assumed): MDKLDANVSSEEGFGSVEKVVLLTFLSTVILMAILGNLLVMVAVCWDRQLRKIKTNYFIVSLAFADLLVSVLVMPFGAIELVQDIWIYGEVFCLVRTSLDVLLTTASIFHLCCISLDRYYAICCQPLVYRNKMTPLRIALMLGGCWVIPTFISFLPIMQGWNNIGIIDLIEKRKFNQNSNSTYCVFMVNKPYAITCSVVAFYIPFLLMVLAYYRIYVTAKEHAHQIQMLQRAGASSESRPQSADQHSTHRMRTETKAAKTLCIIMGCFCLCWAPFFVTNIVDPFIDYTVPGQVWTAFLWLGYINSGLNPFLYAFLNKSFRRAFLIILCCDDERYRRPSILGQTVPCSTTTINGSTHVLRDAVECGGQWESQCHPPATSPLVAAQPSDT
Excerpt: as §1

For a further test, the target named is 5-HT1A (Homo sapiens, UniProt P08908). Briefly: Radioligand binding selectivity, 5-HT1A.
5-HT1A, sequence (P08908 whole entry, species assumed): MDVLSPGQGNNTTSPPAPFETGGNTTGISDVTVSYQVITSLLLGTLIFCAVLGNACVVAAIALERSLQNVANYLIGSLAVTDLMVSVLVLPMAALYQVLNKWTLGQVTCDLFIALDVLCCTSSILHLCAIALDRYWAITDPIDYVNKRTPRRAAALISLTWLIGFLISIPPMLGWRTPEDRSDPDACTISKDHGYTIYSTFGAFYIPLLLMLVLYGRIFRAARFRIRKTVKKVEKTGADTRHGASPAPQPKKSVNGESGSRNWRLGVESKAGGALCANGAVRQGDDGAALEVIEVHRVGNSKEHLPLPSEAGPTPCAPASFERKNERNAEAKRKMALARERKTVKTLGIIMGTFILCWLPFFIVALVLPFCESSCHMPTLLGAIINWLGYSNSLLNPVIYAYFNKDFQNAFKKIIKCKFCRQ
Excerpt: as §1

The target of a further test is 5-HT2A (Homo sapiens, UniProt P28223). Put plainly: Radioligand binding selectivity, 5-HT2A.
5-HT2A, sequence (P28223 whole entry, species assumed): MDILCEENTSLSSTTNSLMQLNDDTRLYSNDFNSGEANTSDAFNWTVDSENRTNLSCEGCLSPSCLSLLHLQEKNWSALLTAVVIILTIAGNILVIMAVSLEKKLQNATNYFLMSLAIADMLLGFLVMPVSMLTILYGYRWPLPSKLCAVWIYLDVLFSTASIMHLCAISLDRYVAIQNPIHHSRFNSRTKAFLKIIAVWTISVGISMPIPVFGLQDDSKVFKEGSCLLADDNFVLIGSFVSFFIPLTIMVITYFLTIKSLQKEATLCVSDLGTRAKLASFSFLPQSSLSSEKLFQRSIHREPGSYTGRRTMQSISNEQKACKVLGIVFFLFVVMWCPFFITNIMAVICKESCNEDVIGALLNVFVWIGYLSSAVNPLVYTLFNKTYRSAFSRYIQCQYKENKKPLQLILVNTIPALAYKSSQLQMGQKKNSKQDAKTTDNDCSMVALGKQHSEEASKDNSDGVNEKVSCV
Excerpt: as §1

For another test, the target named is 5-HT2B (Homo sapiens, UniProt P41595). Briefly: Radioligand binding selectivity, 5-HT2B.
5-HT2B, sequence (P41595 whole entry, species assumed): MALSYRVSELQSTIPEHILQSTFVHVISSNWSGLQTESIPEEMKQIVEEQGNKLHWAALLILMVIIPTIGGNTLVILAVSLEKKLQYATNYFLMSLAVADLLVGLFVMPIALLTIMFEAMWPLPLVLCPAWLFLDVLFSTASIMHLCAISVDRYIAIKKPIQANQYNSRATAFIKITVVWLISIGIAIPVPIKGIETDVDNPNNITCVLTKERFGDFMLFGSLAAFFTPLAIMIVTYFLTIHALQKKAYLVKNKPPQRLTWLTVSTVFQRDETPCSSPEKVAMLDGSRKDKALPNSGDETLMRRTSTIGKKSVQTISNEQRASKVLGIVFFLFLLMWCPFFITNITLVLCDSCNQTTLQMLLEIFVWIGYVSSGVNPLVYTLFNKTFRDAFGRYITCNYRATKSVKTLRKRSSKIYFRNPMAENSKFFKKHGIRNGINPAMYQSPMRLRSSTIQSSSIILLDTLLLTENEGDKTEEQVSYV
Excerpt: as §1

The target in another test is Adrenergic Beta2 (Homo sapiens, UniProt P07550). Briefly: Radioligand binding selectivity, Adrenergic Beta2.
Adrenergic Beta2, sequence (P07550 whole entry): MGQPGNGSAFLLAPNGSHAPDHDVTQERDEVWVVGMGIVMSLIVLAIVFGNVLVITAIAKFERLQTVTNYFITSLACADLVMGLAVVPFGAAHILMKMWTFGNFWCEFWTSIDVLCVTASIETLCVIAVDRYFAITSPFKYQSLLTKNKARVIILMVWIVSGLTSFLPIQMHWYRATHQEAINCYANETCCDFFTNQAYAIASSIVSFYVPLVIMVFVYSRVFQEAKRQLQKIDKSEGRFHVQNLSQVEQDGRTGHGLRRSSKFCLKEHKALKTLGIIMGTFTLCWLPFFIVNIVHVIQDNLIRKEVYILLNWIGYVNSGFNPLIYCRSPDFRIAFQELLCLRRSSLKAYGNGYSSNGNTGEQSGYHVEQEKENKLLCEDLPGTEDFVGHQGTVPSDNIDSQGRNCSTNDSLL
Excerpt: as §1

For the next test, the target named is D1 Dopamine (Homo sapiens, UniProt P21728). Put plainly: Radioligand binding selectivity, D1 Dopamine.
D1 Dopamine, sequence (P21728 whole entry): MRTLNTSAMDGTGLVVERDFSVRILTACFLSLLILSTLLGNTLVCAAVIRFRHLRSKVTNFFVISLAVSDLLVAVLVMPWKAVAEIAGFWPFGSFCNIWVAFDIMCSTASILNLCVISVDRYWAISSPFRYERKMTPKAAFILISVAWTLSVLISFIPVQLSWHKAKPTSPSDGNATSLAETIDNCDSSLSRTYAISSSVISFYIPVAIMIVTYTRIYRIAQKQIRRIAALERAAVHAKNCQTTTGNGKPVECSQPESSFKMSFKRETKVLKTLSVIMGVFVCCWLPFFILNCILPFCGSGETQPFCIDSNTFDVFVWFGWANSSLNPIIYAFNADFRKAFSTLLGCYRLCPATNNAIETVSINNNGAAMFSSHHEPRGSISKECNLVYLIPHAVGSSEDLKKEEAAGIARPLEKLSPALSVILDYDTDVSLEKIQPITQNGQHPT
Excerpt: as §1

A further test concerns the target Ca+2 channel (DHP site). Put plainly: Radioligand binding selectivity, Ca+2 channel (DHP site).
Excerpt: as §1

Another test has as its target 5-HT1D (Homo sapiens, UniProt P28221). Put plainly: Radioligand binding selectivity, 5-HT1D.
Excerpt: as §1

The next test has as its target Na+ channel. Put plainly: Radioligand binding selectivity, Na+ channel.
Excerpt: as §1

The target of the next test is 5-HT1F (Homo sapiens, UniProt P30939). Briefly: Radioligand binding selectivity, 5-HT1F.
Excerpt: as §1

The target in a further test is D2 Dopamine (Homo sapiens, UniProt P14416). Briefly: Radioligand binding selectivity, D2 Dopamine.
D2 Dopamine, sequence (P14416 whole entry): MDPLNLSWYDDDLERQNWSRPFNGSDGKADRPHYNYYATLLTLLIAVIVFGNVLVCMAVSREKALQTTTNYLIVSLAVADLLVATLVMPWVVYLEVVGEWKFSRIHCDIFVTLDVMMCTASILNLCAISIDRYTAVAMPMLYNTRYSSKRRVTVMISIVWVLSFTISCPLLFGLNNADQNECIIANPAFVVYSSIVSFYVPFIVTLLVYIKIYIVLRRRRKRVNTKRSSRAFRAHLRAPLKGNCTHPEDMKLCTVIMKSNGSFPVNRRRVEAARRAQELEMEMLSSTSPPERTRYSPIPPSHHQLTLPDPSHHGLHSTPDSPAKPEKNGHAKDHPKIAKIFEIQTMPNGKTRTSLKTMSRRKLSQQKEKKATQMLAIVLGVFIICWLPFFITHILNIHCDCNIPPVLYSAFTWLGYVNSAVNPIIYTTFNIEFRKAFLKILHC
Excerpt: as §1

Like-named read-outs stand apart in the source and are kept apart here.

Muscarinic M3, sequence (P20309 whole entry): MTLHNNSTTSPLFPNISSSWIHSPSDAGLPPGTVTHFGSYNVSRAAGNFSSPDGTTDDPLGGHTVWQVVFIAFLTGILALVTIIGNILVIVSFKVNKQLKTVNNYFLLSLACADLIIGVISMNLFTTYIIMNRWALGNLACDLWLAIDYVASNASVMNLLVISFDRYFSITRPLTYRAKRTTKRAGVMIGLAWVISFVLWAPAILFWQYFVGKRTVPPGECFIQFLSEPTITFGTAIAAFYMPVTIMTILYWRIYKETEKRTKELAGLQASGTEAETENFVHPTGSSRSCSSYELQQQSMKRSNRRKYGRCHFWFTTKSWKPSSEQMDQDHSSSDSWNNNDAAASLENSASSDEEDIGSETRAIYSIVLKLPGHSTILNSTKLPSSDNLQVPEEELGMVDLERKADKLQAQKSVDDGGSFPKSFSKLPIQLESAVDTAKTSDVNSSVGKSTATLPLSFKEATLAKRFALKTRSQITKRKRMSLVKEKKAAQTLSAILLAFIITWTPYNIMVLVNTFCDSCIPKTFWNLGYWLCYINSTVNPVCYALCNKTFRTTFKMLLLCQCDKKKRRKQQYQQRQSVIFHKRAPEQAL
T1 sequence (P41146 whole entry): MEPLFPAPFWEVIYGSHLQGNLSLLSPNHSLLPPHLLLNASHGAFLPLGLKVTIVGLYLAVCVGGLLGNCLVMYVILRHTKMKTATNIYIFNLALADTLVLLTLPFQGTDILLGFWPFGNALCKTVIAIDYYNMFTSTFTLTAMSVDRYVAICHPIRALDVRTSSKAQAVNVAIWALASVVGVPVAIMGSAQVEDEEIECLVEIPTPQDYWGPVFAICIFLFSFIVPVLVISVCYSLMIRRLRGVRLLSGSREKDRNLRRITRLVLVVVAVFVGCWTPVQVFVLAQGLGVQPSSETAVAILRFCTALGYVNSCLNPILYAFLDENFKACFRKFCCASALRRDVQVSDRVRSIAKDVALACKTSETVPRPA
5-HT1D, sequence (P28221 whole entry, species assumed): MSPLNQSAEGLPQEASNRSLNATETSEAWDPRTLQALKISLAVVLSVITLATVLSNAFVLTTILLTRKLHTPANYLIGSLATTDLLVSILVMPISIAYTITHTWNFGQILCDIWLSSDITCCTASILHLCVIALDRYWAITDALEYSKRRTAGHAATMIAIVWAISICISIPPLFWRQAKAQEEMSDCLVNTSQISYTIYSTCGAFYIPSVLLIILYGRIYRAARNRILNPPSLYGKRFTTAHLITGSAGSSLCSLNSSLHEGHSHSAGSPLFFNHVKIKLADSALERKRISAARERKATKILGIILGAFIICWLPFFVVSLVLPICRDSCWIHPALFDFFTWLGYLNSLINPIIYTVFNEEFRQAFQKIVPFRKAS

In turn, `Cc1nn(-c2ncccc2Cn2cccn2)cc1CN1CCC2(CC1)OCC(F)(F)c1cc(Cl)sc12.O=C(O)C(O)C(O)C(=O)O` [Example 23, 2-Chloro-4,4-difluoro-1′-[[3-methyl-1-[3-(pyrazol-1-ylmethyl)-2-pyridyl]pyrazol-4-yl]methyl]spiro[5H-thieno[2,3-c]pyran-7,4′-piperidine] (L)-Tartrate] came in with a Kb in [1] of 0.00152 µM.

As for `O=C(O)C(O)C(O)C(=O)O.OCc1nn(-c2ncccc2F)cc1CN1CCC2(CC1)OCC(F)(F)c1cc(Cl)sc12` [Example 53, [4-[(2-Chloro-4,4-difluoro-spiro[5H-thieno[2,3-c]pyran-7,4′-piperidine]-1′-yl)methyl]-1-(3-fluoro-2-pyridyl)pyrazol-3-yl]methanol (L)-Tartrate], the inhibitory constant (Ki) is > 5 µM at Muscarinic M3; > 0.5 µM in test [2]; > 5 µM on Histamine H1; > 5 µM on Adenosine A3; > 4.12 µM at 5-HT4; > 3.18 µM at 5-HT1A. Besides, the Ki is > 5 µM at 5-HT2A; 0.22 µM on 5-HT2B; > 5 µM at Adrenergic Beta2; > 5 µM at D1 Dopamine; > 5 µM at Ca+2 channel (DHP site); > 8.55 µM at 5-HT1D. The values for the inhibition constant Ki at Na+ channel, at 5-HT1F and on D2 Dopamine were > 0.5 µM, > 8.52 µM and > 5 µM, respectively. The molecule also returned a Kb in test [1] of 0.00062 µM.

Turning to `Cc1nn(-c2ncccc2CO)cc1CN1CCC2(CC1)OCC(F)(F)c1cc(Cl)sc12` [Example 62, [2-[4-[(2-Chloro-4,4-difluoro-spiro[5H-thieno[2,3-c]pyran-7,4′-piperidine]-1′-yl)methyl]-3-methyl-pyrazol-1-yl]-3-pyridyl]methanol], the inhibition constant (Ki) on Muscarinic M3 (read-out: Ki Muscarinic M3) is > 5 µM; in test [2] it was > 0.5 µM; at Histamine H1, > 5 µM; on Adenosine A3, > 5 µM; on 5-HT4 (read-out: Ki 5-HT4), > 4.12 µM; on 5-HT1A (read-out: Ki 5-HT1A), > 3.18 µM. The Ki was > 5 µM on 5-HT2A (read-out: Ki 5-HT2A); 0.693 µM at 5-HT2B (read-out: Ki 5-HT2B); > 5 µM on Adrenergic Beta2; > 5 µM at D1 Dopamine (read-out: Ki D1 Dopamine); > 5 µM at Ca+2 channel (DHP site); > 8.55 µM at 5-HT1D (read-out: Ki 5-HT1D). Further, the Ki at Na+ channel is 0.235 µM; at 5-HT1F (read-out: Ki 5-HT1F) it was > 8.52 µM; at D2 Dopamine (read-out: Ki D2 Dopamine), > 5 µM.
